Results published in patent publication US20230087118A1, “IMIDAZO[1,2-a][sequence] DERIVATIVES AND THEIR USE IN THE TREATMENT OF DISEASE” (priority 2019, published 2023).
Counter-ions that a name gives are not always drawn.

Each molecule was assayed against T1, IRAK4 (Homo sapiens, UniProt Q9NWZ3) (assay: biochemical). Settings: not given.
T1 sequence (Q9NWZ3 1-460): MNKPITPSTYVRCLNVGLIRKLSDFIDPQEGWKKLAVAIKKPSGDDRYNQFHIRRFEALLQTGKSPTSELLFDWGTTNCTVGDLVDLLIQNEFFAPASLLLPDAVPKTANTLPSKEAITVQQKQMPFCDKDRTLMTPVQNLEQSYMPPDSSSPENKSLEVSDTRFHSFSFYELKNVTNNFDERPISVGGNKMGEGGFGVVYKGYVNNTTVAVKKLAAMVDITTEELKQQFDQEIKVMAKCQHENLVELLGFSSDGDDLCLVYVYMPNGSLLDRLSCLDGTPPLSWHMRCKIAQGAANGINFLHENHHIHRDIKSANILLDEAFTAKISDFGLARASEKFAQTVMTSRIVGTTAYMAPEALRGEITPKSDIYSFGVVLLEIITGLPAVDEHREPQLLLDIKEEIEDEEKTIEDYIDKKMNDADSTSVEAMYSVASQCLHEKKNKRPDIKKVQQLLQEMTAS

IC50 | SMILES
0.0069 µM | CC(C)Oc1cc2nc(C34COC(C)(C3)C4)cn2cc1C(=O)Nc1ccccn1 [Example 219]
0.0115 µM | CC(C)Oc1cc2nccn2cc1C(=O)Nc1cccc(C(F)F)n1 [Example 220]
0.0006 µM | CC(C)Oc1cc2nc(C34COC(C)(C3)C4)cn2cc1C(=O)Nc1cccc2ccnn12 [Example 221]
0.0081 µM | CC(C)Oc1cc2nc(C34COC(C)(C3)C4)cn2cc1C(=O)Nc1cccnc1OC(F)F [Example 222]
0.0022 µM | CCOc1nc(C(=O)Nc2cccc(C(F)F)n2)cn2cc(C3CCCOC3)nc12 (centres unmarked) [Example 223]
0.0086 µM | CCOc1nc(C(=O)Nc2cccnc2OC)cn2cc(C3CCCOC3)nc12 (centres unmarked) [Example 224]
0.0052 µM | CCOc1nc(C(=O)Nc2cccnc2OC)cn2cc(C34COC(C)(C3)C4)nc12 [Example 225]
0.0024 µM | CCOc1nc(C(=O)Nc2cccc(C(F)F)n2)cn2cc(C34COC(C)(C3)C4)nc12 [Example 226]
0.0003 µM | COC12CC(c3cn4cc(C(=O)Nc5cccc(C(F)F)n5)c(OC(C)C)cc4n3)(C1)C2 [Example 227]
0.0393 µM | CC(C)Oc1cc2nc(C34COC(C)(C3)C4)c(Cl)n2cc1C(=O)Nc1cccc(C(F)F)n1 [Example 229, 3-Chloro-N-(6-(difluoromethyl)pyridin-2-yl)-7-isopropoxy-2-(1-methyl-2-oxabicyclo[2.1.1]hexan-4-yl)imidazo[1,2-a]pyridine-6-carboxamide]
0.0071 µM | COc1nc(C(=O)Nc2cccc(C(F)F)n2)cn2cc(C34COC(C)(C3)C4)nc12 [Example 231, N-(6-(difluoromethyl)pyridin-2-yl)-8-methoxy-2-(1-methyl-2-oxabicyclo[2.1.1]hexan-4-yl)imidazo[1,2-a]pyrazine-6-carboxamide]
0.0031 µM | COc1ncccc1NC(=O)c1cn2cc(C34COC(C)(C3)C4)nc2c(OC)n1 [Example 232]
0.0025 µM | COc1cc2nc(C34CCOC(C)(C3)C4)cn2cc1C(=O)Nc1cccc(C(F)F)n1 [Example 233]
0.0053 µM | COc1nc(C(=O)Nc2cccc(C(F)F)n2)cn2cc(C34CCOC(C)(C3)C4)nc12 [Example 234]
0.0035 µM | COc1ncccc1NC(=O)c1cn2cc(C34CCOC(C)(C3)C4)nc2c(OC)n1 [Example 235]
0.0002 µM | CC(C)Oc1nc2nc(C34CCOC(C)(C3)C4)cn2cc1C(=O)Nc1cccc(C(F)F)n1 [Example 236]
0.0003 µM | CC(C)Oc1nc2nc(C34CCOC(C)(C3)C4)cn2cc1C(=O)Nc1cccc(C(F)(F)F)n1 [Example 237]
0.0064 µM | COc1nc(C(=O)Nc2cccc(C(F)(F)F)n2)cn2cc(C34CCOC(C)(C3)C4)nc12 [Example 238]
0.0008 µM | COc1ncccc1NC(=O)c1cn2cc(C34CCC(C)(C3)OC4)nc2c(OC(C)C)n1 (centres unmarked) [Example 239]
0.0023 µM | CC(C)Oc1nc(C(=O)Nc2ccn(C)n2)cn2cc(C34CCC(C)(C3)OC4)nc12 (centres unmarked) [Example 240]

IC50 | SMILES
0.0015 µM | CCOc1nc2nc(C34COC(C)(C3)C4)cn2cc1C(=O)Nc1cccc(C(F)F)n1 [Example 241]
0.0013 µM | CCOc1nc2nc(C34COC(C)(C3)C4)cn2cc1C(=O)Nc1cccnc1OC [Example 242]
0.0002 µM | CC(C)Oc1cc2nc(C34CCC(C)(C3)OC4)cn2cc1C(=O)Nc1cccc(C(F)F)n1 (centres unmarked) [Example 243]
0.0059 µM | CC(C)Oc1cc2nc(C34COC(C)(C3)C4)cn2cc1C(=O)Nc1ccc(F)cn1 [Example 244]
0.0003 µM | CC(C)Oc1cc2nc(C34COC(C)(C3)C4)cn2cc1C(=O)Nc1cccc(C(F)(F)F)n1 [Example 245]
0.0002 µM | CC(C)Oc1cc2nc(C34CCC(C3)OC4)cn2cc1C(=O)Nc1cccc(C(F)F)n1 (centres unmarked) [Example 246]
0.0002 µM | CC(C)Oc1nc2nc(C34CCC(C)(C3)OC4)cn2cc1C(=O)Nc1cccc(C(F)F)n1 (centres unmarked) [Example 247]
0.0002 µM | COc1ncccc1NC(=O)c1cn2cc(C34CCC(C)(C3)OC4)nc2nc1OC(C)C (centres unmarked) [Example 248]
0.0007 µM | COc1ncccc1NC(=O)c1cn2cc(C34CCC(C3)OC4)nc2cc1OC(C)C (centres unmarked) [Example 249]
0.0013 µM | CC(C)Oc1cc2nc(C34CCC(C)(C3)OC4)cn2cc1C(=O)Nc1cnn2c1OCCC2 (centres unmarked) [Example 250]
0.0153 µM | CC12CCC(c3cn4cc(C(=O)Nc5cccc(C(F)F)n5)cc(OC(F)F)c4n3)(CO1)C2 (centres unmarked) [Example 251]
0.001 µM | COc1cccc(NC(=O)c2cn3cc(C4C5COCC54)nc3cc2OC(C)C)n1 (centres unmarked) [Example 254, 2-(3-Oxabicyclo[3.1.0]hexan-6-yl)-7-isopropoxy-N-(6-methoxypyridin-2-yl)imidazo[1,2-a]pyridine-6-carboxamide]
0.158 µM | CC(C)Oc1c(C(=O)Nc2cccn(C)c2=O)cn2cc(C34COC(C)(C3)C4)nc2c1Cl [Example 255, 8-Chloro-7-isopropoxy-N-(1-methyl-2-oxo-1,2-dihydropyridin-3-yl)-2-(1-methyl-2-oxabicyclo[2.1.1]hexan-4-yl)imidazo[1,2-a]pyridine-6-carboxamide]
0.0596 µM | CC(C)Oc1cc2nc(C34COC(C)(C3)C4)cn2cc1C(=O)Nc1ccnc(C(F)F)c1 [Example 258, N-(2-(difluoromethyl)pyridin-4-yl)-7-isopropoxy-2-(1-methyl-2-oxabicyclo[2.1.1]hexan-4-yl)imidazo[1,2-a]pyridine-6-carboxamide]
0.0005 µM | Cc1cccc(NC(=O)c2cn3cc(C45COC(C)(C4)C5)nc3cc2OC(C)C)n1 [Example 259, 7-Isopropoxy-2-(1-methyl-2-oxabicyclo[2.1.1]hexan-4-yl)-N-(6-methylpyridin-2-yl)imidazo[1,2-a]pyridine-6-carboxamide]
0.028 µM | CC(C)Oc1cc2nc(C34COC(C)(C3)C4)cn2cc1C(=O)Nc1cc(C#N)cn(C)c1=O [Example 262, N-(5-cyano-1-methyl-2-oxo-1,2-dihydropyridin-3-yl)-7-isopropoxy-2-(1-methyl-2-oxabicyclo[2.1.1]hexan-4-yl)imidazo[1,2-a]pyridine-6-carboxamide]
0.0002 µM | Cc1ccn2ncc(NC(=O)c3cn4cc(C56COC(C)(C5)C6)nc4cc3OC(C)C)c2n1 [Example 263, 7-Isopropoxy-2-(1-methyl-2-oxabicyclo[2.1.1]hexan-4-yl)-N-(5-methylpyrazolo[1,5-a]pyrimidin-3-yl)imidazo[1,2-a]pyridine-6-carboxamide]
0.0002 µM | CC(C)Oc1cc2nc(C34COC(C)(C3)C4)cn2cc1C(=O)Nc1cnn2ccc(Cl)nc12 [Example 264, N-(5-chloropyrazolo[1,5-a]pyrimidin-3-yl)-7-isopropoxy-2-(1-methyl-2-oxabicyclo[2.1.1]hexan-4-yl)imidazo[1,2-a]pyridine-6-carboxamide]
0.0067 µM | CC(C)Oc1cc2nc(Cl)cn2cc1C(=O)Nc1cccc(C(F)F)n1 [Example 265, 2-Chloro-N-(6-(difluoromethyl)pyridin-2-yl)-7-isopropoxyimidazo[1,2-a]pyridine-6-carboxamide]

SMILES | IC50
Cc1cnc2c(NC(=O)c3cn4cc(C56COC(C)(C5)C6)nc4c(F)c3OC3CCC3)cnn2c1 [Example 256, 7-Cyclobutoxy-8-fluoro-2-(1-methyl-2-oxabicyclo[2.1.1]hexan-4-yl)-N-(6-methylpyrazolo[1,5-a]pyrimidin-3-yl)imidazo[1,2-a]pyridine-6-carboxamide] | 0.0009 µM

Same assay, conditions: IRAK4 Biochemical Assay (1 mM ATP, 2 h) IC50 (μM), 1 mM ATP, 2 h, 100 pM IRAK4

IC50 | SMILES
0.003 µM | CC(C)Oc1c(C(=O)Nc2cccc(C(F)(F)F)n2)cn2cc(C34COC(C)(C3)C4)nc2c1F [Example 230, 8-Fluoro-7-isopropoxy-2-(1-methyl-2-oxabicyclo[2.1.1]hexan-4-yl)-N-(6-(trifluoromethyl)pyridin-2-yl)imidazo[1,2-a]pyridine-6-carboxamide trifluoroacetate]
0.0004 µM | COc1ncccc1NC(=O)c1cn2cc(C34CC(OC)(C3)C4)nc2cc1OC(C)C [Example 252, 7-Isopropoxy-2-(3-methoxybicyclo[1.1.1]pentan-1-yl)-N-(2-methoxypyridin-3-yl)imidazo[1,2-a]pyridine-6-carboxamide trifluoroacetate]
0.0004 µM | CC(C)Oc1cc2nc(C3C4COCC43)cn2cc1C(=O)Nc1cccc(C(F)F)n1 (centres unmarked) [Example 253, 2-(3-Oxabicyclo[3.1.0]hexan-6-yl)-N-(6-(difluoromethyl)pyridin-2-yl)-7-isopropoxyimidazo[1,2-a]pyridine-6-carboxamide hydrochloride]
0.0003 µM | CC(C)Oc1cc2nc(C34COC(C)(C3)C4)cn2cc1C(=O)Nc1cccc(C#N)c1F [Example 257, N-(3-cyano-2-fluorophenyl)-7-isopropoxy-2-(1-methyl-2-oxabicyclo[2.1.1]hexan-4-yl)imidazo[1,2-a]pyridine-6-carboxamide trifluoroacetate]
0.0005 µM | CC(C)Oc1cc2nc(C34COC(C)(C3)C4)cn2cc1C(=O)Nc1cccc(N(C)C)n1 [Example 260, N-(6-(dimethylamino)pyridin-2-yl)-7-isopropoxy-2-(1-methyl-2-oxabicyclo[2.1.1]hexan-4-yl)imidazo[1,2-a]pyridine-6-carboxamide 2,2,2-trifluoroacetate]
0.0047 µM | CC(C)Oc1cc2nc(C34COC(C)(C3)C4)cn2cc1C(=O)Nc1cncn(C)c1=O [Example 261, 7-Isopropoxy-N-(1-methyl-6-oxo-1,6-dihydropyrimidin-5-yl)-2-(1-methyl-2-oxabicyclo[2.1.1]hexan-4-yl)imidazo[1,2-a]pyridine-6-carboxamide 2,2,2-trifluoroacetate]

SMILES | IC50
CC(C)Oc1nc2nc(C34COC(C)(C3)C4)cn2cc1C(=O)Nc1cccc(C(F)F)n1 [Example 218] | 0.0002 µM
